Measured values: EP4509511A1, “SUBSTITUTED SPIRO-ISOXAZOLINYL LACTAMS, SALTS THEREOF AND THEIR USE AS HERBICIDALLY ACTIVE SUBSTANCES” (Bayer Aktiengesellschaft, priority 2023, dated 2025)

Legend:
[1] = tested on: MATIN; assay: Herbicidal pre-emergence action - Part I; type: in vivo, Matricaria inodora; settings: visual grading after ca. 3 weeks vs untreated controls
Procedure, shortened: (§1)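 In this greenhouse pre-emergence test, formulated compounds with 0.5% additive were applied at 1280 g/ha or below onto the soil covering sown weed seeds in sandy loam. After roughly three weeks, plant damage was scored by eye in percent versus untreated controls.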

[2] = tested on: DIGSA; assay: Herbicidal pre-emergence action - Part I; type: in vivo, Digitaria sanguinalis; settings: visual grading after ca. 3 weeks vs untreated controls
Procedure, shortened: as §1

[3] = tested on: ORYZA; assay: Pre-emergence effects on crop plants; type: in vivo, Oryza sativa; settings: crop plant
Text: (§2) Seeds of mono- and dicotyledonous weed plants and crop plants were sown, in plastic or organic planting pots, in sandy loam and covered with soil. The compounds according to the invention, formulated in the form of wettable powders (WP) or as emulsifiable concentrates (EC), were applied to the surface of the covering soil as aqueous suspension or emulsion, with the addition of 0.5% of an additive, at an application rate of 600 1 of water/ha (converted). Following treatment, the pots were placed in a greenhouse and kept under optimum growth conditions for the test plants. The visual grading of the damage to the test plants was carried out after ca. 3 weeks in comparison to untreated controls (herbicidal effect in percent (%): 100% effect = plants have died off, 0% effect = as control plants). Tables D1 to D5 below show the effects of various compounds of the general formula (I) according to Table 1 on various crop plants and an application rate corresponding to 320 g/ha or below obtained by the experimental procedure mentioned above in Biological Examples, Section C. Table […]: pre-emergence activity at 320g/ha against ZEAMX in %

[4] = tested on: STEME; assay: Herbicidal post-emergence action - Part I; type: in vivo, Stellaria media; settings: 1280 g/ha, one-leaf stage, rated visually after about 3 weeks vs untreated controls
Procedure, shortened: (§3)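 Greenhouse weeds grown in sandy loam were sprayed post-emergence at the one-leaf stage, 2-3 weeks after sowing. Compounds were applied as WP or EC in water with 0.5% additive at 600 L/ha, at 1280 g/ha or below. Visual damage was rated after about 3 weeks versus untreated plants (0-100%).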

[5] = tested on: ALOMY; assay: Herbicidal pre-emergence action - Part I; type: in vivo, Alopecurus myosuroides; settings: visual grading after ca. 3 weeks vs untreated controls
Text: (§4) Seeds of mono- and dicotyledonous weed plants were sown in plastic pots (double sowings with one species of mono- and one species of dicotyledonous weed plants per pot), in sandy loam, and covered with soil. The compounds according to the invention, formulated in the form of wettable powders (WP) or as emulsifiable concentrates (EC), were applied to the surface of the covering soil as aqueous suspension or emulsion, with the addition of 0.5% of an additive, at an application rate of 600 1 of water per hectare (converted). Following treatment, the pots were placed in a greenhouse and kept under optimum growth conditions for the test plants. The visual grading of the damage to the test plants was carried out after ca. 3 weeks in comparison to untreated controls (herbicidaleffectinpercent(%):100%effect=plantshavediedoff,0%effect=ascontrolplants). [formula]
(§5) Tables A1 to A12, below, show the effects of selected compounds of the general formula (I) according to table 1 on various harmful plants and an application rate corresponding to 1280 g/ha or below obtained by the experimental procedure mentioned above. Table A1: pre-emergence activity at 1280g/ha against ABUTH in %

[6] = tested on: ORYZA; assay: Post-emergence effects on crop plants; type: in vivo, Oryza sativa; settings: crop plant
Text: Seeds of mono- and dicotyledonous weed plants and crop plants were sown, in plastic or organic planting pots, in sandy loam, covered with soil and grown in a greenhouse under controlled growth conditions. 2 to 3 weeks after sowing, the test plants were sprayed in the single-leaf stage. The compounds according to the invention, formulated in form of wettable powders (WP) or as emulsifiable concentrates (EC), were sprayed onto the green plant parts as aqueous suspension or emulsion, with the addition of 0.5% of an additive, at an application rate of 600 1 of water/ha (converted). The test plants were placed in the greenhouse for ca. 3 weeks under optimum growth conditions, and then the effect of the preparations was assessed visually in comparison with untreated controls (herbicidal effect in percent (%): 100% effect = plants have died off, 0% effect = as control plants). Tables F1 to F5 below show the effects of selected compounds of the general formula (I) according to table 1 on various crop plants and an application rate corresponding to 320 g/ha or below obtained by the experimental procedure mentioned above. Table […]: post-emergence activity at 5g/ha against ZEAMX in %

[7] = tested on: VERPE; assay: Herbicidal post-emergence action - Part II; type: in vivo, Veronica persica
Procedure, shortened: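 Post-emergence greenhouse test: weeds and crops in sandy loam sprayed at single-leaf stage, 2–3 weeks after sowing, with WP or EC formulations in water plus 0.5% additive at 600 l water/ha. Rates 320 g/ha or below. Visual rating after ca. 3 weeks versus untreated controls, % effect (100% = plants dead).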

[8] = tested on: POAAN; assay: Herbicidal post-emergence action - Part I; type: in vivo, Poa annua; settings: 1280 g/ha, one-leaf stage, rated visually after about 3 weeks vs untreated controls
Procedure, shortened: as §3

[9] = tested on: AMARE; assay: Herbicidal post-emergence action - Part I; type: in vivo, Amaranthus retroflexus; settings: one-leaf stage, rated visually after about 3 weeks vs untreated controls
Procedure, shortened: as §3

[10] = tested on: VERPE; assay: Herbicidal pre-emergence action - Part I; type: in vivo, Veronica persica; settings: visual grading after ca. 3 weeks vs untreated controls
Text: as §4, §5

[11] = tested on: BRSNW; assay: Pre-emergence effects on crop plants; type: in vivo, Brassica napus; settings: 80 g/ha; Table D5; crop plant
Text: as §2

Structure (SMILES)	pre-emergence activity at 320g/ha against MATIN in % [1] [%]	pre-emergence activity at 1280g/ha against MATIN in % [1] [%]	pre-emergence activity at 320g/ha against DIGSA in % ([2]; 320 g/ha) [%]	pre-emergence activity at 1280g/ha against DIGSA in % ([2]; 1280 g/ha) [%]	pre-emergence activity against ORYZA ([3]; 80 g/ha, Table D3b) [%]	post-emergence activity at 1280g/ha against STEME in % [4] [%]	pre-emergence activity at 1280g/ha against ALOMY in % [5] [%]	post-emergence activity against ORYZA ([6]; 320 g/ha, Table F3a) [%]	post-emergence activity against VERPE ([7]; 80 g/ha, Table E8c) [%]	post-emergence activity against VERPE ([7]; 320 g/ha, Table E8d) [%]	post-emergence activity at 1280g/ha against POAAN in % [8] [%]	post-emergence activity at 1280g/ha against AMARE in % [9] [%]	pre-emergence activity at 1280g/ha against VERPE in % [10] [%]	pre-emergence activity against BRSNW [11] [%]	post-emergence activity at 80g/ha against AMARE in % ([9]; 80 g/ha) [%]	post-emergence activity at 320g/ha against AMARE in % ([9]; 320 g/ha) [%]	pre-emergence activity against ORYZA ([3]; Table D3a, title: 320g/ha, application rate: 80 g/ha) [%]	post-emergence activity against ORYZA ([6]; Table F3b, title: 80g/ha, application rate column: 320 g/ha) [%]
Cc1ccsc1C1=NOC2(CCCN(Cc3c(F)cccc3F)C2=O)C1 (racemic) [Compound I-2]	90	90	100	100	0	90	90	20	90	90	90	90	–	–	–	–	–	–
O=C1N(Cc2ccccc2F)CCC12CC(c1c(F)cccc1F)=NO2 (racemic) [Compound I-10]	90	90	–	–	0	90	–	0	–	–	–	90	90	20	90	90	–	–
Cc1ccsc1C1=NOC2(CCN(Cc3c(F)cccc3F)C2=O)C1 (racemic) [Compound I-16, 7-(2,6-Difluorobenzyl)-3-(3-methyl-2-thienyl)-1-oxa-2,7-diazaspiro[4.4]non-2-en-6-one]	90	90	–	–	0	90	90	0	–	–	90	–	100	20	–	–	20	0
